The source of these data is patent US20060223117A1, “Novel splice variants of human epithelial sodium channel genes expressed in human taste tissue and uses thereof” (SENOMYX, INC., priority 2005, published 2006).

“Also recorded” adds a separate entry of the source.

The subject of one test is perceived salt intensity. Briefly: Senomyx human taste experiments, perceived salt intensity. The format is in vivo.
Test [1] concerns intensity of sodium chloride. The settings on record: humans; concentrations that specifically inhibit ENaC function; cited from earlier work.

Consider `N=C(N)NC(=O)c1nc(Cl)c(N)nc1N` [amiloride], for which the “effect on perceived salt intensity” value in the test on perceived salt intensity (tested at levels 300-fold above IC50 values in oocytes) is given as “did not exhibit a significant effect; also recorded: did not demonstrate a significant effect”. In addition, in test [1], the “reduction of the intensity of sodium chloride” value is on record as 15-20%.
As for `NC(=Nc1ccccc1)NC(=O)c1nc(Cl)c(N)nc1N` [phenamil], the “effect on perceived salt intensity” value is “did not demonstrate a significant effect” in the test with perceived salt intensity (tested at levels 3000-fold (printed: for benzamil) above IC50 values in oocytes) and “did not exhibit a significant effect” in the test with perceived salt intensity (tested at levels 3000-fold (printed: for benzamil) above IC50 values in oocytes, listed as phenomil).
